According to patent US20200085776A1, “Methods of Reducing C-Reactive Protein and/or Treating Cardiovascular Disease” (CARDAX, INC., priority 2018, published 2020):

System: C-reactive protein (CRP)
Test: CRP (hs-CRP) in blood, CHASE clinical study
Format: in vivo, human
Conditions: Group X 12 mg BID
Source text: This is a two-part study comprising Part I and Part II. Following screening, Part I consists of a randomized, double-blind, placebo controlled dosing period of up to 12 weeks. The study shall be conducted at one or more study sites in Hawaii. Approximately 360 subjects qualified after completion of screening procedures shall be randomized in a 1:1:1 ratio to one of three treatment groups, per Table 1.
The Part I 12-week double-blind dosing period commences with V2, including randomization and first dose of study product, and continues with study visits at Week 1-2 (V3), Week 4 (V4), Week 8 (V5), and Week 12 (V6). V6 procedures will conclude Part I.
Blood shall be obtained at each visit for CRP. The screening specimen shall be processed at the local lab and reported to the study staff for eligibility determination; CRP samples at V7 and V8 may also be processed locally and reported directly to study staff. Samples for CRP from V2 through V6 may be batched, processed, and reported as specified in the Laboratory Manual.
At each these visits, blood was obtained for measurement of CRP, among other parameters. Table 7A provides a summary of the CRP measurements (mg/L) at each visit and Table 7B provides a summary of the differences of CRP levels between V2 and V6.

[1] = V1 screening, subjects with baseline level greater than 2.0
[2] = V2 baseline pre-dose, all subjects
[3] = V2 baseline pre-dose, subjects not taking a hypertension agent
[4] = V2 baseline pre-dose, subjects not taking any cardiac therapeutic agent
[5] = V2 baseline pre-dose, subjects not taking statins
[6] = V2 baseline pre-dose, subjects taking an anti-diabetic agent
[7] = V2 baseline pre-dose, subjects with CAD
[8] = V2 baseline pre-dose, subjects with DM2, hypertension and hyperlipidemia but not CAD
[9] = V2 baseline pre-dose, subjects with Diabetes Mellitus Type II
[10] = V2 baseline pre-dose, subjects with baseline level greater than 2.0
[11] = V2 baseline pre-dose, subjects with hyperlipidemia
[12] = V3 Week 1-2, subjects with baseline level greater than 2.0
[13] = V4 Week 4, subjects with baseline level greater than 2.0
[14] = V5 Week 8, subjects with baseline level greater than 2.0
[15] = V6 Week 12, subjects not taking a hypertension agent
[16] = V6 Week 12, subjects not taking any cardiac therapeutic agent
[17] = V6 Week 12, subjects not taking statins
[18] = V6 Week 12, subjects taking an anti-diabetic agent

CC1=C(/C=C/C(C)=C/C=C/C(C)=C/C=C/C=C(C)/C=C/C=C(C)/C=C/C2=C(C)C(=O)C(O)CC2(C)C)C(C)(C)CC(O)C1=O (stereo not drawn) [Astaxanthin, astaxanthin]
CRP Max (V1 screening, all subjects): 15.96 mg/L
CRP Mean (SD) (V1 screening, all subjects): 5.43 (3.91) mg/L
CRP Median (V1 screening, all subjects): 3.95 mg/L
CRP Min (V1 screening, all subjects): 2.87 mg/L
CRP Max [1]: 15.96 mg/L
CRP Mean (SD) [1]: 5.64 (4.06) mg/L
CRP Median [1]: 3.98 mg/L
CRP Min [1]: 2.87 mg/L
CRP Max [2]: 17.86 mg/L
CRP Mean (SD) [2]: 5.52 (4.80) mg/L
CRP Median [2]: 3.64 mg/L
CRP Min [2]: 1.39 mg/L
CRP Max [3]: 3.64, 3.64 mg/L
CRP Mean (SD) [3]: 3.64 mg/L
CRP Median [3]: 3.64 mg/L
CRP Min [3]: 3.64, 3.64 mg/L
CRP Max [4]: 17.86 mg/L
CRP Mean (SD) [4]: 6.81 (6.86) mg/L
CRP Median [4]: 3.64 mg/L
CRP Min [4]: 1.39 mg/L
CRP Max [5]: 8.61 mg/L
CRP Mean (SD) [5]: 4.04 (2.48) mg/L
CRP Median [5]: 3.12 mg/L
CRP Min [5]: 2.16 mg/L
CRP Max [6]: 17.86 mg/L
CRP Mean (SD) [6]: 7.52 (5.87) mg/L
CRP Median [6]: 6.78 mg/L
CRP Min [6]: 1.39 mg/L
CRP Max [7]: 8.61, 8.61 mg/L
CRP Mean (SD) [7]: 8.61 mg/L
CRP Median [7]: 8.61 mg/L
CRP Min [7]: 8.61, 8.61 mg/L
CRP Max [8]: 17.86 mg/L
CRP Mean (SD) [8]: 7.30 (6.54) mg/L
CRP Median [8]: 4.94 mg/L
CRP Min [8]: 1.39 mg/L
CRP Max [9]: 17.86 mg/L
CRP Mean (SD) [9]: 7.52 (5.87) mg/L
CRP Median [9]: 6.78 mg/L
CRP Min [9]: 1.39 mg/L
CRP Max [10]: 17.86 mg/L
CRP Mean (SD) [10]: 5.93 (4.85) mg/L
CRP Median [10]: 4.29 mg/L
CRP Min [10]: 2.16 mg/L
CRP Max [11]: 17.86 mg/L
CRP Mean (SD) [11]: 6.71 (5.19) mg/L
CRP Median [11]: 4.95 mg/L
CRP Min [11]: 1.39 mg/L
CRP Max (V3 Week 1-2, all subjects): 6.72 mg/L
CRP Mean (SD) (V3 Week 1-2, all subjects): 3.72 (2.06) mg/L
CRP Median (V3 Week 1-2, all subjects): 3.44 mg/L
CRP Min (V3 Week 1-2, all subjects): 0.44 mg/L
CRP Max [12]: 6.72 mg/L
CRP Mean (SD) [12]: 3.97 (1.97) mg/L
CRP Median [12]: 3.55 mg/L
CRP Min [12]: 0.44 mg/L
CRP Max (V4 Week 4, all subjects): 15.83 mg/L
CRP Mean (SD) (V4 Week 4, all subjects): 3.98 (4.24) mg/L
CRP Median (V4 Week 4, all subjects): 2.56 mg/L
CRP Min (V4 Week 4, all subjects): 0.56 mg/L
CRP Max [13]: 15.83 mg/L
CRP Mean (SD) [13]: 4.22 (4.39) mg/L
CRP Median [13]: 3.27 mg/L
CRP Min [13]: 0.56 mg/L
CRP Max (V5 Week 8, all subjects): 18.24 mg/L
CRP Mean (SD) (V5 Week 8, all subjects): 4.90 (4.99) mg/L
CRP Median (V5 Week 8, all subjects): 3.71 mg/L
CRP Min (V5 Week 8, all subjects): 1.06 mg/L
CRP Max [14]: 18.24 mg/L
CRP Mean (SD) [14]: 5.29 (5.09) mg/L
CRP Median [14]: 4.08 mg/L
CRP Min [14]: 1.06 mg/L
CRP Max (V6 Week 12, all subjects): 11.04 mg/L
CRP Mean (SD) (V6 Week 12, all subjects): 3.45 (3.09) mg/L
CRP Median (V6 Week 12, all subjects): 2.70 mg/L
CRP Min (V6 Week 12, all subjects): 0.22 mg/L
CRP Max [15]: 2.70, 2.70 mg/L
CRP Mean (SD) [15]: 2.70 mg/L
CRP Median [15]: 2.70 mg/L
CRP Min [15]: 2.70, 2.70 mg/L
CRP Max [16]: 6.80 mg/L
CRP Mean (SD) [16]: 2.53 (2.56) mg/L
CRP Median [16]: 1.91 mg/L
CRP Min [16]: 0.22 mg/L
CRP Max [17]: 11.04 mg/L
CRP Mean (SD) [17]: 3.86 (3.78) mg/L
CRP Median [17]: 2.71 mg/L
CRP Min [17]: 0.22 mg/L
CRP Max [18]: 6.80 mg/L
CRP Mean (SD) [18]: 2.91 (2.07) mg/L
CRP Median [18]: 2.32 mg/L
CRP Min [18]: 1.02 mg/L
CRP Max (V6 Week 12, subjects with CAD): 2.72, 2.72 mg/L
CRP Mean (SD) (V6 Week 12, subjects with CAD): 2.72 mg/L
CRP Median (V6 Week 12, subjects with CAD): 2.72 mg/L
CRP Min (V6 Week 12, subjects with CAD): 2.72, 2.72 mg/L
